Tests used:
[1] = target: TRα (Homo sapiens, UniProt P10827); experiment: nuclear receptor cellular GAL4 reporter assay; format: cell-based; settings: agonist and antagonist mode; read-out: potency in agonist and antagonist mode
[2] = target: T1, LXRβ (Homo sapiens, UniProt P55055); experiment: nuclear receptor cellular GAL4 reporter assay; format: cell-based; settings: agonist and antagonist mode; read-out: potency in agonist and antagonist mode
T1 construct: expressed in transfected cells

[3] = target: T2, FXR (Homo sapiens, UniProt Q96RI1); experiment: nuclear receptor cellular GAL4 reporter assay; format: cell-based; settings: agonist and antagonist mode; read-out: potency in agonist and antagonist mode
T2 construct: expressed in transfected cells

[4] = target: T3, ERβ (Homo sapiens, UniProt Q92731); experiment: nuclear receptor cellular GAL4 reporter assay; format: cell-based; settings: agonist and antagonist mode; read-out: potency in agonist and antagonist mode
T3 construct: expressed in transfected cells

[5] = target: T4, beta 1 (h) (Homo sapiens, UniProt P08588); experiment: Cerep panel; format: binding
T4 construct: purchased Cerep (receptors, ion channels, transporters); Eurofins Panlabs (kinases)
Description: (§2) A panel of 52 different receptors, ion channels and transporters was tested by Cerep, Inc. (Redmond, WA).

[6] = target: T5, ETA (h) (Homo sapiens, UniProt P25101); experiment: Cerep panel; format: binding
T5 construct: purchased Cerep (receptors, ion channels, transporters); Eurofins Panlabs (kinases)
Description: as §2

[7] = target: T6, GAL2 (h) (Homo sapiens, UniProt O43603); experiment: Cerep panel; format: binding
T6 construct: purchased Cerep (receptors, ion channels, transporters); Eurofins Panlabs (kinases)
Description: as §2

[8] = target: T7, M2 (h) (Homo sapiens, UniProt P08172); experiment: Cerep panel; format: binding
T7 construct: purchased Cerep (receptors, ion channels, transporters); Eurofins Panlabs (kinases)
Description: as §2

[9] = target: T8, 5-HT1B (Rattus norvegicus, UniProt P28564); experiment: Cerep panel; format: binding
T8 construct: purchased Cerep (receptors, ion channels, transporters); Eurofins Panlabs (kinases)
Description: as §2

[10] = target: T9, 5-HT3 (h) (Homo sapiens, UniProt P46098); experiment: Cerep panel; format: binding
T9 construct: purchased Cerep (receptors, ion channels, transporters); Eurofins Panlabs (kinases)
Description: as §2

[11] = test system: Na+ channel (site 2); experiment: Cerep panel; format: binding
Description: as §2

[12] = target: 5HT1A (Homo sapiens, UniProt P08908); experiment: GPCR panel, cAMP or calcium FLIPR assays; format: cell-based
Description: 28 GPCRs were evaluated through cAMP or calcium FLIPR assays[67]. A panel of 52 different receptors, ion channels and transporters was tested by Cerep, Inc. (Redmond, WA).

[13] = target: ADRB1 (Homo sapiens, UniProt P08588); experiment: GPCR panel, cAMP or calcium FLIPR assays; format: cell-based
Description: (§3) 28 GPCRs were evaluated through cAMP or calcium FLIPR assays[67].

[14] = target: H1 (Homo sapiens, UniProt P35367); experiment: GPCR panel, cAMP or calcium FLIPR assays; format: cell-based
Description: as §3

[15] = target: M1 (Homo sapiens, UniProt P11229); experiment: GPCR panel, cAMP or calcium FLIPR assays; format: cell-based
Description: as §3

[16] = target: T10, Blk(h) (Homo sapiens, UniProt P51451); experiment: Kinase panel; format: biochemical
T10 construct: purchased Cerep (receptors, ion channels, transporters); Eurofins Panlabs (kinases)
Description: (§4) Kinase selectivity was conducted by Eurofins Panlabs Inc (St Charles, MO).

[17] = target: T11, CDK1/cyclinB(h) (Homo sapiens, UniProt P06493); experiment: Kinase panel; format: biochemical
T11 construct: purchased Cerep (receptors, ion channels, transporters); Eurofins Panlabs (kinases)
Description: as §4

[18] = target: T12, CDK5/p35(h) (Homo sapiens, UniProt Q00535); experiment: Kinase panel; format: biochemical
T12 construct: purchased Cerep (receptors, ion channels, transporters); Eurofins Panlabs (kinases)
Description: as §4

[19] = target: T13, IGF-1R(h) (Homo sapiens, UniProt P08069); experiment: Kinase panel; format: biochemical
T13 construct: purchased Cerep (receptors, ion channels, transporters); Eurofins Panlabs (kinases)
Description: as §4

[20] = target: T14, ZIPK(h) (Homo sapiens, UniProt O43293); experiment: Kinase panel; format: biochemical
T14 construct: purchased Cerep (receptors, ion channels, transporters); Eurofins Panlabs (kinases)
Description: as §4

[21] = test system: rat whole blood; experiment: in vitro whole blood assay, IL-17A production; format: cell-based; settings: rat whole blood diluted 1:4; read-out: IC50, inhibition of IL-17A production
Description: Two days later, IL-17A levels were measured in culture supernatant samples (see supplementary materials and methods).

[22] = modeled plasma exposure in the CIA model; format: in vivo, mouse
[23] = 1-month GLP toxicity study in rats; format: in vivo; settings: Sprague-Dawley, in vivo, rat; for AUC(0-t) / Cmax: po, 400 mg/kg/day; for AUC(0-t): read-out: AUC0-24 h at NOAEL; for Cmax: read-out: Cmax at NOAEL
Description: (§1) The type of study plan was reviewed and agreed by the Laboratory Animal Welfare Officer and the Animal Ethical Committee (officially known as Dierexperimentencommissie (DEC) Charles River Den Bosch), as required by the Dutch Act on Animal Experimentation (February 1997). Both rat and dog studies were performed in AALAC accredited Charles River Laboratories in the Netherlands. Studies in rats were conducted with 0, 25, 100, and 400 mg/kg per day (n = 10/sex/group) for 1 month. An additional 5 animals/sex in vehicle and high dose were allowed to continue for a 1-month treatment-free recovery period. Studies in dogs were conducted with 0, 3, 10, and 30 mg/kg per day (n = 4/sex/group) for 1 month. A treatment-free recovery period of 1 month (additional 2 dogs/sex/group) was included for both vehicle controls and high dose groups. […] Rats and dogs were examined for mortality, clinical signs, ophthalmoscopic changes, body weight, food consumption, hematology, clinical chemistry, anatomic pathology, and toxicokinetics. In addition, dogs were examined for electrocardiographic changes. Rats and dogs were also assessed for reversal of any effects following a 1-month recovery period. These studies were conducted in compliance with good laboratory practice (GLP) regulations.

[24] = test system: Sprague–Dawley rats; experiment: 1-month GLP toxicity study in rats; format: in vivo; settings: rat; recovered after 1-month recovery period
Description: as §1

[25] = 1-month GLP toxicity study in dogs; format: in vivo; settings: Beagle, in vivo, dog; for AUC(0-t) / Cmax: po, 3 mg/kg; for AUC(0-t): read-out: AUC0-24 h at NOAEL; for Cmax: read-out: Cmax at NOAEL
Description: as §1

[26] = test system: Beagle dogs; experiment: 1-month GLP toxicity study in dogs; format: in vivo; settings: dog
Description: as §1

[27] = test system: bacterial reverse mutation assay (AMES test); experiment: bacterial reverse mutation assay (AMES test); format: cell-based; settings: in vitro
[28] = test system: rat bone marrow; experiment: in vivo rat micronucleus test on bone marrow

T14 sequence (O43293 whole entry): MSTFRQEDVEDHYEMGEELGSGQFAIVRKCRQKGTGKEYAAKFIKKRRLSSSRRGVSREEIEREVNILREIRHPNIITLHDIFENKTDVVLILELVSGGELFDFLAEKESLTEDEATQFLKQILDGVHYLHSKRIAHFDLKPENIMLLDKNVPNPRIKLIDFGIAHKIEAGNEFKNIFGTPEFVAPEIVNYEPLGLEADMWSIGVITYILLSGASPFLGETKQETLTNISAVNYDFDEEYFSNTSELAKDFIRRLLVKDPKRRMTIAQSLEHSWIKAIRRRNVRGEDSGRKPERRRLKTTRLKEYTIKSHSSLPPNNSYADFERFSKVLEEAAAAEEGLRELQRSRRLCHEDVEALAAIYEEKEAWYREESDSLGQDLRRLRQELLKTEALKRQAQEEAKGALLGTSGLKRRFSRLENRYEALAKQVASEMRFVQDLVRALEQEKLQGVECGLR
T10 sequence (P51451 whole entry): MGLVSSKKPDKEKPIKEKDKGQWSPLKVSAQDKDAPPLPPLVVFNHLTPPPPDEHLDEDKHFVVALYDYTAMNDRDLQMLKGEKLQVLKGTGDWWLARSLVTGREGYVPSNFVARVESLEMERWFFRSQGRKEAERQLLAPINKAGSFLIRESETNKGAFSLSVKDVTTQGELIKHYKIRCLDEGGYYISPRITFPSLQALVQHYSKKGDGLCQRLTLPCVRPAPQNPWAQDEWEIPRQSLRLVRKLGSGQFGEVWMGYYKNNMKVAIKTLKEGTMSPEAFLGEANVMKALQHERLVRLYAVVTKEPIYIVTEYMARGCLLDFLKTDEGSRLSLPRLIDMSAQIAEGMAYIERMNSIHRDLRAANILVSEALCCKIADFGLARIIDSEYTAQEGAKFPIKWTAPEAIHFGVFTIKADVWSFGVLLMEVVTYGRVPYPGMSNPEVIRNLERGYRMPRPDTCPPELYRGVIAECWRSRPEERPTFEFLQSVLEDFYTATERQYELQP
Sequence of 5HT1A (P08908 whole entry, species assumed): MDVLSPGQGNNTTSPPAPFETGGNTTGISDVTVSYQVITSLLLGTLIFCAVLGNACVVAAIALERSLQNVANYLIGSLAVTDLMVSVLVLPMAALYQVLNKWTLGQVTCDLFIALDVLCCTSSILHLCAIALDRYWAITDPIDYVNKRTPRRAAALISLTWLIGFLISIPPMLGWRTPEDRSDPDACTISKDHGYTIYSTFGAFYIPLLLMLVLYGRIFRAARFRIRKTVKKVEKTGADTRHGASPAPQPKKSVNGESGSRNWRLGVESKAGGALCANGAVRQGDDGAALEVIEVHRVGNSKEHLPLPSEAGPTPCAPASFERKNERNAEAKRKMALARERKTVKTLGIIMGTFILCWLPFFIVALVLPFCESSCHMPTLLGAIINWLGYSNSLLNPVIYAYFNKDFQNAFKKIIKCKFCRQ
T5 sequence (P25101 21-427): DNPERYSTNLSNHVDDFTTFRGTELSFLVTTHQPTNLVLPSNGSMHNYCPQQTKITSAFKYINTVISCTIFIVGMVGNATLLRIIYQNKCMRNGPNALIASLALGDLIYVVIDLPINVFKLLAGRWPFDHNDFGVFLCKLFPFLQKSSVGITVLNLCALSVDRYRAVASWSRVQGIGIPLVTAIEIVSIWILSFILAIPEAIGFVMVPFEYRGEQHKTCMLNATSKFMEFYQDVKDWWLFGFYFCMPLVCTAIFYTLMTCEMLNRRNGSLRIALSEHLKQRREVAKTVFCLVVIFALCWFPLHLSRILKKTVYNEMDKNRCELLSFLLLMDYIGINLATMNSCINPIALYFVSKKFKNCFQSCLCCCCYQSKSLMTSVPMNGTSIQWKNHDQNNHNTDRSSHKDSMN
T6 sequence (O43603 whole entry): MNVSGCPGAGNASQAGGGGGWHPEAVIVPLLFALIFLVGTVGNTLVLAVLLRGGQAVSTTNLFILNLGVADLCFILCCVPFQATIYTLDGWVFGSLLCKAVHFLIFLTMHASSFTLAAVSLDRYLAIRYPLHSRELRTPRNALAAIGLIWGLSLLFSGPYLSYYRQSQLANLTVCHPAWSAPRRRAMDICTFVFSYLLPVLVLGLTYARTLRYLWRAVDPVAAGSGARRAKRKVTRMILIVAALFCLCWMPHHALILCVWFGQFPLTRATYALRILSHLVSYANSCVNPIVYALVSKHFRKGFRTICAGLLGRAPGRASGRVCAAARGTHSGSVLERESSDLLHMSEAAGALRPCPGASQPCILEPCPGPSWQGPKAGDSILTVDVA
T11 sequence (P06493 whole entry): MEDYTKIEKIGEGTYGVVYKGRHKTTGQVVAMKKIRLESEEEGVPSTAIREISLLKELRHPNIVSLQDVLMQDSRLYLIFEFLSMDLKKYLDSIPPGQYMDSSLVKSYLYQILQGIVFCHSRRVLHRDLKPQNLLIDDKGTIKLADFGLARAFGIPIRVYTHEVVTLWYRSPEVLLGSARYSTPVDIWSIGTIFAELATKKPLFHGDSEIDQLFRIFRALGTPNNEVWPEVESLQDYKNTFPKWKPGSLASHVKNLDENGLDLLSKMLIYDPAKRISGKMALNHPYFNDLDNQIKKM
T11 sequence (P14635 whole entry partner): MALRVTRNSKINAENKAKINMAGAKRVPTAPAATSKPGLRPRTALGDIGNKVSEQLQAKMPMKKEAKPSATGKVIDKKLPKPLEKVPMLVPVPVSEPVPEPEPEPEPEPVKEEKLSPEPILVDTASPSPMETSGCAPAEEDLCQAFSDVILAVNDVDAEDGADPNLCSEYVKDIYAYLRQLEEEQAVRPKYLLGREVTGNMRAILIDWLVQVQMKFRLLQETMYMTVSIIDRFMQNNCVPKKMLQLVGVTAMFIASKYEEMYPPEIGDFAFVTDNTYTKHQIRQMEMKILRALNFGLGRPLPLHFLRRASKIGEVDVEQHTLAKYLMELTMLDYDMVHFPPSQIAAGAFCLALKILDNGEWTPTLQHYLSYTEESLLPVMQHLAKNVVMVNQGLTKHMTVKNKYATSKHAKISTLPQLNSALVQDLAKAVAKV
T7 sequence (P08172 whole entry): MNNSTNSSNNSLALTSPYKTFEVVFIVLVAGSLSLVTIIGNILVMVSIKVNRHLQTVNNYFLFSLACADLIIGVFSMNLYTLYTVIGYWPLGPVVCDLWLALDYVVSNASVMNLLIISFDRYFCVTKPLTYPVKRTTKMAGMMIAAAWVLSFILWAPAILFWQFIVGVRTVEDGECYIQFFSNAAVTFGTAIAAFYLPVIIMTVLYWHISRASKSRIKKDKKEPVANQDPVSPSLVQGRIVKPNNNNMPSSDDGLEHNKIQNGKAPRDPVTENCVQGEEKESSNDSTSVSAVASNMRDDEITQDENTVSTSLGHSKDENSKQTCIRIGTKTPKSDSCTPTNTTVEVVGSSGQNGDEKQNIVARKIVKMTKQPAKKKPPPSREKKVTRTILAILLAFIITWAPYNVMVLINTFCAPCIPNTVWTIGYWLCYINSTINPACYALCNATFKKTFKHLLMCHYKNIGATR
T12 sequence (Q00535 whole entry): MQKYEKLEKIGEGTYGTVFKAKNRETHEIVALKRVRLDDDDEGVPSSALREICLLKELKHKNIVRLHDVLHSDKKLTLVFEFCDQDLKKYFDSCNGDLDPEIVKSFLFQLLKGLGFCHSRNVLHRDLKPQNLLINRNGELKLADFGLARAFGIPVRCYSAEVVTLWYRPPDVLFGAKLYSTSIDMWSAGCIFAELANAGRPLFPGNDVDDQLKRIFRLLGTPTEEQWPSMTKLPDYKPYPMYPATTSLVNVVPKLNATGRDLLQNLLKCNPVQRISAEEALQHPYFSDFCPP
T12 sequence (Q15078 whole entry partner): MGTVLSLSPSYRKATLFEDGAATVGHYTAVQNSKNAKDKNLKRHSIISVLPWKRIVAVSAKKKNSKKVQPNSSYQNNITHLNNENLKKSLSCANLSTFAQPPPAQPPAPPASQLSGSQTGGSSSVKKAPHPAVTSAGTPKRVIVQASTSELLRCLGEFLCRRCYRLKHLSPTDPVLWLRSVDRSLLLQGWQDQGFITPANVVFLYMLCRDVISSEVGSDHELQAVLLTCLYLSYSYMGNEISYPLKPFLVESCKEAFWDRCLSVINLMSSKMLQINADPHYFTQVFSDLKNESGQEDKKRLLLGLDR
T9 sequence (P46098 24-478): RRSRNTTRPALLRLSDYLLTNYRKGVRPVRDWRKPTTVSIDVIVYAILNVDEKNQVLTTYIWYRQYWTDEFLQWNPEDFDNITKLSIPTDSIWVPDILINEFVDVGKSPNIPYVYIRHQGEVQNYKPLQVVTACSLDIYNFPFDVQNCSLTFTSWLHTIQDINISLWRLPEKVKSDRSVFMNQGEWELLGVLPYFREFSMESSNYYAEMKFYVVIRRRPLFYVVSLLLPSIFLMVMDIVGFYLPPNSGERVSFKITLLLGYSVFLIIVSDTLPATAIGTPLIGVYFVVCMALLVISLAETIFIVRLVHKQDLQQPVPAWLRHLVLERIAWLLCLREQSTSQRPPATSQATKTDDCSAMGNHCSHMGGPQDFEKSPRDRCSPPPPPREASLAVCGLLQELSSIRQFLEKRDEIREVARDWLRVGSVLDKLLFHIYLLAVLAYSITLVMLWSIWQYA
T4 sequence (P08588 whole entry): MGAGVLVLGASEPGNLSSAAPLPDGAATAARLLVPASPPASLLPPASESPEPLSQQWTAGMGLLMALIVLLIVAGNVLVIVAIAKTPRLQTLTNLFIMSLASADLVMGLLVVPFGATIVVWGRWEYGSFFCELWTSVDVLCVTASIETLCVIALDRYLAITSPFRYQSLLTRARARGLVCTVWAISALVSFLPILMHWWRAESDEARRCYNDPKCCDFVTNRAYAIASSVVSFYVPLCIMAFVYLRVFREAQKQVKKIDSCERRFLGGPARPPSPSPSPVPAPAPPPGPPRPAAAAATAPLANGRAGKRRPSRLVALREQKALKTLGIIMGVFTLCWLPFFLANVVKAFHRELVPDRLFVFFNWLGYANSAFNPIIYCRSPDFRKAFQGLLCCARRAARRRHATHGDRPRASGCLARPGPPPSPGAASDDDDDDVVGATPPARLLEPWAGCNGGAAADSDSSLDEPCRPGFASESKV

Q: With `CC1CCCN1C(=O)c1nc(C(=O)NCC(C)(C)O)sc1-c1ccc(C(O)(C(F)(F)F)C(F)(F)F)c(Cl)c1Cl` (stereo not drawn) [JNJ-61803534] as the compound, how does the IC50 [1] read?
A: > 1.5 µM

Q: What about the IC50 [2] of the same compound?
A: > 1.5 µM

Q: What about the IC50 [3] of the same compound?
A: > 1.5 µM

Q: What about the IC50 [4] of the same compound?
A: > 1.5 µM

Q: And the inhibition at 1 µM [5]?
A: < 10%

Q: And the inhibition at 10 µM [5]?
A: < 10%

Q: What about the inhibition at 1 µM [6] of the same compound?
A: < 10%

Q: What about the inhibition at 10 µM [6] of the same compound?
A: < 10%

Q: And the inhibition at 1 µM [7]?
A: < 10%

Q: What about the inhibition at 10 µM [7] of the same compound?
A: < 10%

Q: What about the inhibition at 1 µM [8] of the same compound?
A: < 10%

Q: What about the inhibition at 10 µM [8] of the same compound?
A: < 10%

Q: What about the inhibition at 1 µM [9] of the same compound?
A: < 10%

Q: What about the inhibition at 10 µM [9] of the same compound?
A: 15.6%

Q: And the inhibition at 1 µM [10]?
A: < 10%

Q: What about the inhibition at 10 µM [10] of the same compound?
A: < 10%

Q: And the “% Inhibition at 1 µM” value ([11]; 1 µM)?
A: 15%

Q: What about the “% Inhibition at 10 µM” value ([11]; 10 µM) of the same compound?
A: 46%

Q: What about the EC50 ([12]; agonist) of the same compound?
A: > 12.5 µM

Q: What about the IC50 ([12]; antagonist) of the same compound?
A: > 12.5 µM

Q: What about the EC50 ([13]; agonist) of the same compound?
A: > 12.5 µM

Q: And the IC50 ([13]; antagonist)?
A: > 12.5 µM

Q: What about the EC50 ([14]; agonist) of the same compound?
A: > 10 µM

Q: And the IC50 ([14]; antagonist)?
A: > 10 µM

Q: And the EC50 ([15]; agonist)?
A: > 10 µM

Q: And the IC50 ([15]; antagonist)?
A: > 10 µM

Q: And the activity at 1 µM [16]?
A: 95%

Q: And the activity at 10 µM [16]?
A: 102%

Q: What about the activity at 1 µM [17] of the same compound?
A: 96%

Q: What about the activity at 10 µM [17] of the same compound?
A: 108%

Q: And the activity at 1 µM [18]?
A: 97%

Q: And the activity at 10 µM [18]?
A: 107%

Q: And the activity at 1 µM [19]?
A: 95%

Q: What about the activity at 10 µM [19] of the same compound?
A: 106%

Q: And the activity at 1 µM [20]?
A: 113%

Q: And the activity at 10 µM [20]?
A: 120%

Q: What about the IC50 [21] of the same compound?
A: 0.12 ± 0.01 µM

Q: What about the Caverage ([22]; 3 mg/kg BID) of the same compound?
A: 702 nM

Q: And the Ctrough ([22]; 3 mg/kg BID)?
A: 74 nM

Q: And the Caverage ([22]; 10 mg/kg BID)?
A: 2032 nM

Q: What about the Ctrough ([22]; 10 mg/kg BID) of the same compound?
A: 211 nM

Q: And the Caverage ([22]; 30 mg/kg BID)?
A: 6909 nM

Q: And the Ctrough ([22]; 30 mg/kg BID)?
A: 716 nM

Q: What about the Caverage ([22]; 60 mg/kg QD) of the same compound?
A: 6909 nM

Q: And the Ctrough ([22]; 60 mg/kg QD)?
A: 26 nM

Q: What about the Caverage ([22]; 100 mg/kg BID) of the same compound?
A: 20321 nM

Q: And the Ctrough ([22]; 100 mg/kg BID)?
A: 2106 nM

Q: What about the AUC(0-t) ([23]; female) of the same compound?
A: 376 µg·h/mL

Q: What about the Cmax ([23]; female) of the same compound?
A: 24200 ng/mL

Q: What about the AUC(0-t) ([23]; male) of the same compound?
A: 310 µg·h/mL

Q: And the Cmax ([23]; male)?
A: 29600 ng/mL

Q: And the NOAEL at 1 month ([23]; both sexes, 1 month oral, highest dose tested, read-out: no-observed-adverse-effect level (NOAEL))?
A: 400 mg/kg/day

Q: What about the “lymphocyte apoptosis in thymus” value [24] of the same compound?
A: dose-dependent lymphocyte apoptosis in thymus was observed

Q: What about the AUC(0-t) ([25]; female) of the same compound?
A: 142 µg·h/mL

Q: What about the Cmax ([25]; female) of the same compound?
A: 7500 ng/mL

Q: What about the AUC(0-t) ([25]; male) of the same compound?
A: 118 µg·h/mL

Q: And the Cmax ([25]; male)?
A: 7250 ng/mL

Q: And the NOAEL at 1 month ([25]; both sexes, 1 month oral)?
A: 3 mg/kg

Q: And the tolerability ([26]; 10 mg/kg/day, weight loss and reduced food consumption in the fourth week, trend for increased ALP)?
A: clinically well tolerated during the first 3 weeks of treatment

Q: What about the tolerability ([26]; 30 mg/kg/day, intestinal mucosal hemorrhages and slight hepatocellular lipid vacuolation in some animals) of the same compound?
A: exceeded the maximum tolerated dose

Q: What about the “lymphocyte apoptosis in thymus” value ([26]; recovered after 1-month recovery period) of the same compound?
A: dose-dependent lymphocyte apoptosis in thymus was observed

Q: And the genetic toxicity [27]?
A: negative

Q: And the genetic toxicity [28]?
A: negative
